Results published in patent US10550103B2, “Dual inhibitors of PARP1 and CDK” (Accutar Biotechnology, priority 2017, dated 2020).
Read-outs that look alike come from different tables or passages of the source.

Columns and labels:
[1] = test system: more than 480 kinase assays (403 non-mutant kinases); assay: Kinase selectivity, DiscoverX KINOMEscan competition binding
Description: A kinase selectivity assay was performed with C3 using DiscoverX KINOMEscan™ (www.discoverx.com/, which is herein incorporated by reference in its entirety for all purposes). The KINOMEscan platform employs active site-directed competition binding assay to quantitatively measure interactions between test compounds (e.g., C3) and more than 480 kinase assays including clinically relevant mutants, lipid, atypical, and pathogen kinases, plus a growing panel of activation-state specific assays.
The data was interpreted using three selectivity score types (e.g., S(35); S(10); and S(1)) in order to provide a broad kinase selectivity picture (e.g., a selectivity score) of C3. The selectivity score was calculated using % Ctrl as a potency threshold (below) and provides a quantitative method of describing compound selectivity to facilitate comparison of different compounds. The three selectivity score types used to interpret the data are summarized below: S=Number of hits/Number of assays S(35)=(number of non-mutant kinases with % Ctrl<35)/(number of non-mutant kinases tested) S(10)=(number of non-mutant kinases with % Ctrl<10)/(number of non-mutant kinases tested) S(1)=(number of non-mutant kinases with % Ctrl<1)/(number of non-mutant kinases tested)

HCC1395 cells = assay: BRAC1 mutant triple negative breast cancer cell growth inhibition assay (Cell Titer Glo), HCC1395; type: cell-based
Description: (§1) HCC1937 cells and HCC1395 cells are both […], triple negative (ER, PR, HER2) breast cancer cell lines. The cells were maintained in RPMI1640 medium (Gibco A10491-01) supplemented with 10% FBS, and 1× Penicillin Streptomycin. The HCC1937 cells (ATCC® CRL-2336™) and HCC1395 cells (ATCC® CRL-2324™), respectively, were plated in 96 dark well plates at 0.4×10^4 cells/well.
(§2) Cell medium was replaced each day for 4 days.
(§3) To determine cell viability, the relative cell number was determined by the Cell Titer Glo reagent (Promega) according to the protocol. At each day of the assay, the 96 well plate and reagents were equilibrated at RT for 30 min. 100 μl of Cell Titer Glo reagent was added to each well. The contents of each well were mixed using a pipetter to induce cell lysis. The plate was allowed to incubate at RT for 30 min to stabilize the luminescent signal, and the luminescence was determined by a luminometer (Perkin Elmer EnSpire).

MCF7 cells [2] = assay: MCF7 cell proliferation assay; type: cell-based, human; details: days 1-4; FIG. 6, 7
Description: A cell proliferation assay was performed with MCF7 cells, which is a human breast cancer adenocarcima cell line which expresses PARP1, to compare the inhibitor effect of C2 (Abemaciclib), C2 in combination with letrozole (1 μM), C3, and C3 in combination with letrozole (1 μM). Cell proliferation results at increasing concentrations of C2 and C3 were measured at day 1 (FIG. 6A), day 2 (FIG. 6B), day 3 (FIG. 6C), and day 4 (FIG. 6D).

HCC1937 cells = assay: BRAC1 mutant triple negative breast cancer cell growth inhibition assay (Cell Titer Glo), HCC1937; type: cell-based
Description: as §1, §2, §3

[3] = MCF/E2 xenograft tumor mouse model, body weight; type: in vivo; details: 50 mg/kg P.O. QD for 2 weeks; FIG. 14B
Description: (§4) A MCF/E2 xenograft tumor mouse model was used to evaluate the efficacy of C3 in the treatment of breast cancer. 50 mg/kg of C3 was administered, P.O., once daily (QD) for 2 weeks. Data was compared to a vehicle control.

PARP1 = target: T1, PARP1 (Homo sapiens, UniProt P09874); assay: PARP inhibition assay (TREVIGEN kit, NAD fluorescence); type: biochemical; details: final PARP concentration 40 nM; inhibition curves FIG. 2A-2D
T1 construct: purchased TREVIGEN 4690-096-K
T1 sequence (P09874 whole entry): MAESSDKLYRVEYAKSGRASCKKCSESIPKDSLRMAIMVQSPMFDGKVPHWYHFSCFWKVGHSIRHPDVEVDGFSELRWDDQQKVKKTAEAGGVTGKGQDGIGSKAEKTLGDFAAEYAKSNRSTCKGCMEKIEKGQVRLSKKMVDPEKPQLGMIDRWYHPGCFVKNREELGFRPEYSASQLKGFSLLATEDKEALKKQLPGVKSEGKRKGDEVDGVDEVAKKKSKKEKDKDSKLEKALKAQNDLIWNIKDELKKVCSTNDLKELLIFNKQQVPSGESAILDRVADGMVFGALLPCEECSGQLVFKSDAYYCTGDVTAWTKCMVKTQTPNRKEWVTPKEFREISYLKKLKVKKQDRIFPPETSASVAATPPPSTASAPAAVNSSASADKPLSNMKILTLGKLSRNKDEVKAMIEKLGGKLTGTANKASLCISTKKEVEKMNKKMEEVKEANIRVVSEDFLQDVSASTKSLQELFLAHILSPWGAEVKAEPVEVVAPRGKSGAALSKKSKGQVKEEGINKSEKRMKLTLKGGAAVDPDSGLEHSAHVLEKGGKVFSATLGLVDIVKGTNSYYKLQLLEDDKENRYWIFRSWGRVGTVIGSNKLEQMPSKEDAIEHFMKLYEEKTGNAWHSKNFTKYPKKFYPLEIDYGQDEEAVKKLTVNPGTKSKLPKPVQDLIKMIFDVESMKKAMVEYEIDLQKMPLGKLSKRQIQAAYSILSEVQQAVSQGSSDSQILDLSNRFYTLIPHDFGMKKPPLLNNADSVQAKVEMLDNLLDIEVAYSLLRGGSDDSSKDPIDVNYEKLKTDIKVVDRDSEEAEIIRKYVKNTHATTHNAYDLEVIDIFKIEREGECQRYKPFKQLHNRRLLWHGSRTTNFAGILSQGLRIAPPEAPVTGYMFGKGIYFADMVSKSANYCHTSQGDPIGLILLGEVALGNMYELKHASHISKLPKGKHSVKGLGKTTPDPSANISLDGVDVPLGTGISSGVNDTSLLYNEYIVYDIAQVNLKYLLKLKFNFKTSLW
Description: The PARP inhibition assay was performed using a commercially available PARP inhibition assay kit (TREVIGEN, 4690-096-K).
A 1× buffer was prepared by diluting 10× buffer with dH2O.
The nicotinamide adenine dinucleotide (NAD) standards were prepared by diluting the NAD stock solution with the 1× buffer as provided in Table 2 below.
PARP1 inhibitors were prepared in 1× buffer at 50× final concentration. 1 μl of PARP inhibitors were added to the 96 well plate.
PARPminus (×20) and PARPplus (×40) solutions were prepared as provided below in Table 3.
The cycling mix(60×) was prepared as provided below in Table 4.
In the black 96 well plate provided with the kit, 25 μl of 1× buffer was added to wells A5 and A6. To wells B5 to G6, 25 μl of 2×NAD standards were added. To wells H1, H2, A7 to G12, 25 μl NAD2 μM were added. To wells A5 to H6, 1 μl DMSO were added.
The following stock solutions of olaparib and C3 were separately prepared: 500 nM, 2.5 μM, 5 μM, 25 μM, 50 μM, 0.5 mM, and 1 mM. […]
The 96 well plate was read with a fluorescent plate reader (544 nm excitation/590 nm emission filters). […]
The standards indicate that higher concentrations of NAD correspond to higher fluorescence. Because PARP1 consumes NAD, PARP1 inhibition was determined by fluorescence intensity.
Inhibition curves were prepared based on the fluorescence data. […]

[4] = Pharmacokinetics in female BALB/c mice; type: in vivo; details: plasma; for MRT last: read-out: MRT(0-t)
Description: Pharmacokinetic parameters of the of C3 were measured after a single intraperitoneal injection (IP) of 10 mg/kg, or oral administration (PO) of 50 mg/kg in female BALB/c mice. Pharmacokinetic parameters measured include: elimination half-life (t1/2), time to reach maximum blood plasma concentration (Tmax); maximum blood plasma concentration (Cmax); area under the blood plasma concentration-time curve from time zero to the last detectable plasma concentration (AUC(0-t)); area under the blood plasma concentration-time curve from time zero to infinity (AUC(0-∞)); the mean residence time of the drug in the body from time zero to the last detectable plasma concentration (MRT(0-t)); apparent volume of distribution during terminal phase (Vz); and apparent total body clearance of the drug from plasma (CL).

MCF7 cells [5] = assay: MCF7 breast cancer cell viability assay; type: cell-based, human; details: FIG. 15A
Description: (§5) MCF7 is a breast cancer cell line isolated from a person. MDA-MB-231 is a cell line is an epithelial, human breast cancer cell line that was established from a pleural effusion of a person with a metastatic mammary adenocarcinomal. Cell assays were performed using increasing concentrations of C3 and cell viability was measured. Olaparib and palbocicilib were also used in the cell assays to compare the efficacy of C3 in decreasing cell viability of these breast cancer lines.

MCF/E2 xenograft tumor = MCF/E2 xenograft tumor mouse model, tumor volume; type: in vivo; details: 50 mg/kg P.O. QD for 2 weeks; FIG. 14A
Description: as §4

MB231 cells = assay: MB231 cell proliferation assay; type: cell-based, human; details: days 1-4; FIG. 8, 9
Description: A cell proliferation assay was performed with MB231 cells, which is a human breast cancer adenocarcinoma cell line expressing a mutant CDKN2A, treated with C3 or olaparib. Cell proliferation results at increasing concentrations of C3 and olaparib were measured at day 1 (FIG. 8A), day 2 (FIG. 8B), day 3 (FIG. 8C), and day 4 (FIG. 8D).

MDA-MB-231 cells = assay: MDA-MB-231 breast cancer cell viability assay; type: cell-based, human; details: increasing concentrations; FIG. 15B
Description: as §5

[6] = % Ctrl<1, 403 non-mutant kinases, screening concentration 1000 nM
[7] = % Ctrl<10, 403 non-mutant kinases, screening concentration 1000 nM
[8] = % Ctrl<35, 403 non-mutant kinases, screening concentration 1000 nM

Cc1nc2c(F)cc(-c3nc(Nc4ccc(N5CCN(C(=O)c6cc(Cc7n[nH]c(=O)c8ccccc78)ccc6F)CC5)cn4)ncc3F)cc2n1C(C)C [Compound C3]
Number of Hits, S(1) [1, 6]: 11 | Selectivity Score S(1) [1, 6]: 0.027 | Number of Hits, S(10) [1, 7]: 50 | Selectivity Score S(10) [1, 7]: 0.124 | Number of Hits, S(35) [1, 8]: 86 | Selectivity Score S(35) [1, 8]: 0.213 | kinase selectivity (in words) ([1]; KINOMEscan, 1000 nM): relatively selective kinase, with similar kinase selectivity as Abemaciclib | viable HCC1395 cells (HCC1395 cells; 10 μM, day 4, FIG. 10D): almost no HCC1395 cells were viable | inhibition of MCF7 cell proliferation (MCF7 cells [2]): inhibitor of cell proliferation | viable HCC1937 cells (HCC1937 cells; 10 μM, day 4, FIG. 11D): almost no HCC1937 cells were viable | change in body weight versus vehicle control [3]: does not causes changes in body weight | PARP1 inhibition (comparison in words) (PARP1): superior to C2 (Abemaciclib) and similar to olaparib | AUC(0-t) ([4]; mouse, PO 50 mg/kg): 1700 ng·h/mL | Cmax ([4]; mouse, PO 50 mg/kg): 292 ng/mL | Tmax ([4]; mouse, PO 50 mg/kg): 4 h | MRT last ([4]; mouse, PO 50 mg/kg): 3.62 h | AUC(0-inf) ([4]; mouse, single IP 10 mg/kg): 2670 ng·h/mL | AUC(0-t) ([4]; mouse, single IP 10 mg/kg): 2520 ng·h/mL | Cmax ([4]; mouse, single IP 10 mg/kg): 284 ng/mL | Tmax ([4]; mouse, single IP 10 mg/kg): 0.25 h | half-life ([4]; mouse, single IP 10 mg/kg): 5.7 h | MRT last ([4]; mouse, single IP 10 mg/kg): 6.3 h | CL ([4]; single IP 10 mg/kg): 62.3432 mL/min/kg | Vz ([4]; single IP 10 mg/kg): 30.75832 L/kg | reduction of MCF7 cell viability (comparison in words) (MCF7 cells [5]; increasing concentrations): reduced cell viability of MCF7 cells at lower concentrations compared to both olaparib and palbocicilib | change in tumor volume versus vehicle control (MCF/E2 xenograft tumor): able to limit tumor growth compared to the vehicle control | inhibition of MB231 cell proliferation (MB231 cells): stronger inhibitor of cell proliferation of MB231 human breast cancer adenocarcinoma cells than olaparib | reduction of MDA-MB-231 cell viability (comparison in words) (MDA-MB-231 cells): more effective in reducing cell viability of MDA-NIB-231 cell than olaparib and palbocicilib

O=C(c1cc(Cc2n[nH]c(=O)c3ccccc23)ccc1F)N1CCN(C(=O)C2CC2)CC1 [olaparib, reference compound]
viability at 10 µM (HCC1395 cells; Homo sapiens, HCC1395, 96 h, day 4, FIG. 10D, read-out: viable HCC1395 cells): ~60% | viability at 10 µM (HCC1937 cells; Homo sapiens, HCC1937, 96 h, day 4, FIG. 11D, read-out: viable HCC1937 cells): > 80% | concentration at which MCF7 cell viability was reduced to 0 (MCF7 cells [5]): did not reduce cell viability to 0% at the concentrations tested
